Values after ≈ are worked out from the molar mass of the structure shown. Read-outs that look alike come from different tables or passages of the source.
What was measured:
Pharmacokinetics = details: male, ICR (CD-1), mouse, plasma
Experimental: Pharmacokinetic studies were performed in male ICR (CD-1) mice obtained from Charles River, UK. […] Blood samples were collected from the caudal vein into anticoagulant-treated capillaries at predetermined time points up to 8 h, with terminal cardiac puncture at 8 h. Plasma samples were stored at −80 °C until analysis. […] A compound-specific LC-MS/MS method was developed for each test article using matrix-matched calibrators following protein precipitation of samples.

S. aureus [1] = experiment: Serial passaging, MIC of adapted strains; assay type: cell-based; details: Staphylococcus aureus
Experimental: MICs were performed on the first and 10th passage.

A. baumannii = experiment: Mutation frequency and agar MIC; assay type: cell-based; details: A118
Experimental: (§1) Mutation frequencies were performed on solid media at supra-inhibitory concentrations. First, the agar MIC was performed to account for any issues in solubility of compounds in solid media. Agar plates were prepared with 2-fold dilutions of compound.
(§2) For the mutation frequency assay, bacteria from an overnight culture were grown to mid exponential phase in liquid broth, then 100 μL was spread onto an agar plate containing compound at concentrations above the agar MIC. A Miles-Misra was also conducted on an antibiotic-free agar plate to determine the CFU/mL of the starting population. […] The mutation frequency was calculated by dividing the number of colonies on supra inhibitory con-centration plates by the starting population.

E. coli = experiment: Mutation frequency and agar MIC; assay type: cell-based; details: NCTC 12241
Experimental: as §1, §2

S. aureus [2] = experiment: Mutation frequency and agar MIC; assay type: cell-based
Experimental: as §1, §2

Acinetobacter baumannii = experiment: MIC (microbroth dilution); assay type: cell-based; details: read-out: MIC
Outline: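 Broth microdilution MICs were run in tryptic soy broth, or for Streptococcus spp. in cation-adjusted Mueller Hinton broth with 2.5% lysed horse blood, using overnight stationary-phase cultures back-diluted. MIC was the lowest concentration with no visible growth, with OD600 also read. Some MICs included PMBN at 30 μg/mL final.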

[3] = biological target: T1, GyrA S84L mutant DNA gyrase (Staphylococcus aureus, UniProt P0A0K8+P20831, S84L); experiment: DNA gyrase supercoiling inhibition assay; assay type: biochemical, S. aureus
T1 construct: purchased Inspiralis Ltd. (Norwich, UK)
Experimental: (§3) Gyrase inhibition was determined through biochemical assay kits from Inspiralis Ltd. (Norwich, UK), according to manufacturer’s instructions, and as described previously. Briefly, 1U of enzyme was incubated with 0.5 μg of relaxed […] DNA in the presence of compound in 1% DMSO for 30 min at 37 °C. A control reaction contained no compound but still contained 1% DMSO. The reactions were stopped through Stop Buffer addition and the DNA separated through addition of chloroform/iso-amyl alcohol (24;1). Samples were run on a 1% agarose gel at 75 V for 2 h, which was then stained with 1 μg/mL ethidium bromide and visualized using a NuGenius gel imager (Syngene). The intensity of the supercoiled DNA band was quantified using Syngene software, and the inhibition of the supercoiling of the DNA by the compounds was calculated.

WT DNA gyrase = biological target: T2, WT DNA gyrase (Staphylococcus aureus, UniProt P0A0K8+P20831); experiment: DNA gyrase supercoiling inhibition assay; assay type: biochemical, S. aureus
T2 construct: purchased Inspiralis Ltd. (Norwich, UK)
Experimental: as §3

Cc1cc(C)nc(N[C@@H]2CCN(c3c(F)cc4c(=O)c(C(=O)O)cn5c4c3OC[C@@H]5C)C2)n1 [Compound 50, (S)-10-((R)-3-((4,6-Dimethylpyrimidin-2-yl)amino)pyrrolidin-1-yl)-9-fluoro-3-methyl-7-oxo-2,3-dihydro-7H-[1,4]oxazino[2,3,4-ij]quinoline-6-carboxylic acid]
AUC(0-inf) (Pharmacokinetics; iv, 5 mg/kg): 33100 ng·h/mL | clearance (Pharmacokinetics; iv, 5 mg/kg): 2.52 mL/min/kg | Cmax (Pharmacokinetics; po, 20 mg/kg): 14500 ng/mL | Tmax (Pharmacokinetics; po, 20 mg/kg): 30 min | bioavailability (Pharmacokinetics; po, 20 mg/kg): 83% | MIC (S. aureus [1]; 1199B WT): 0.03 µg/mL | MIC (S. aureus [1]; 1199B adapted to 4 x MIC of Compound 7): ≤ 0.015 µg/mL | MIC (S. aureus [1]; 1199B adapted to 4 x MIC of Compound 46): 0.125 µg/mL | MIC (S. aureus [1]; 1199B adapted to 4 x MIC of Compound 50): 0.25 µg/mL | MIC (S. aureus [1]; 1199B adapted to 4 x MIC of Compound 51): 0.03 µg/mL | MIC (S. aureus [1]; 1199 WT): 0.015 µg/mL | MIC (S. aureus [1]; 1199 adapted to 4 x MIC of Compound 7): 0.03 µg/mL | MIC (S. aureus [1]; 1199 adapted to 4 x MIC of Compound 46): ≤ 0.015 µg/mL | MIC (S. aureus [1]; 1199 adapted to 4 x MIC of Compound 50): 0.125 µg/mL | MIC (S. aureus [1]; 1199 adapted to 4 x MIC of Compound 51): ≤ 0.015 µg/mL | MIC (S. aureus [1]; NCTC13616, NCTC 13616 WT): 0.125 µg/mL | MIC (S. aureus [1]; NCTC13616, NCTC 13616 adapted to 4 x MIC of Compound 7): 0.5 µg/mL | MIC (S. aureus [1]; NCTC13616, NCTC 13616 adapted to 4 x MIC of Compound 46): 0.25 µg/mL | MIC (S. aureus [1]; NCTC13616, NCTC 13616 adapted to 4 x MIC of Compound 50): 0.5 µg/mL | MIC (S. aureus [1]; NCTC13616, NCTC 13616 adapted to 4 x MIC of Compound 51): 1 µg/mL | Agar MIC (A. baumannii): 0.25 µg/mL | Agar MIC (E. coli): 0.25 µg/mL | Agar MIC (S. aureus [2]; ATCC 9144): 0.03 µg/mL | Agar MIC (S. aureus [2]; NCTC 13616): 0.5 µg/mL | MIC (Acinetobacter baumannii; Acinetobacter baumannii, 86, oxa23): 8 µg/mL (≈ 17.6 µM) | MIC (Acinetobacter baumannii; Acinetobacter baumannii, 96, oxa23): 4 µg/mL (≈ 8.82 µM) | MIC (Acinetobacter baumannii; Acinetobacter baumannii, 113, oxa23): 4 µg/mL (≈ 8.82 µM) | MIC (Acinetobacter baumannii; Acinetobacter baumannii, A118): ≤ 0.06 µg/mL | MIC (Acinetobacter baumannii; Acinetobacter baumannii, A318): 16 µg/mL (≈ 35.3 µM) | MIC (Acinetobacter baumannii; Acinetobacter baumannii, A319): 4 µg/mL (≈ 8.82 µM) | MIC (Acinetobacter baumannii; Acinetobacter baumannii, A600 colR): 4 µg/mL (≈ 8.82 µM) | MIC (Acinetobacter baumannii; Acinetobacter baumannii, A601 colS): 0.125 µg/mL (≈ 0.276 µM) | MIC (Acinetobacter baumannii; Acinetobacter baumannii, ATCC17978, ATCC 17978): 0.25 µg/mL (≈ 0.551 µM) | MIC (Acinetobacter baumannii; Acinetobacter baumannii, BAA1709, BAA-1709): 0.125 µg/mL (≈ 0.276 µM) | MIC (Acinetobacter baumannii; Acinetobacter baumannii, BAA1710, BAA-1710 (AYE)): 8 µg/mL (≈ 17.6 µM) | MIC (Acinetobacter baumannii; Acinetobacter baumannii, NCTC10303, NCTC 10303): 0.125 µg/mL (≈ 0.276 µM) | MIC (Acinetobacter baumannii; Acinetobacter baumannii, NCTC13302, NCTC 13302, oxa24): 4 µg/mL (≈ 8.82 µM) | MIC (Acinetobacter baumannii; Acinetobacter baumannii, NCTC13424, NCTC 13424, oxa23): > 64 µg/mL | MIC (Acinetobacter baumannii; Acinetobacter baumannii, T strain): 8 µg/mL (≈ 17.6 µM) | MIC (Acinetobacter baumannii; Acinetobacter baumannii, UKA1, oxa23): 4 µg/mL (≈ 8.82 µM) | MIC (Acinetobacter baumannii; Acinetobacter baumannii, UKA2, Low resistance): 8 µg/mL (≈ 17.6 µM) | MIC (Acinetobacter baumannii; Acinetobacter baumannii, UKA9): 0.125 µg/mL (≈ 0.276 µM) | MIC (Acinetobacter baumannii; Acinetobacter baumannii, UKA12, oxa23): 4 µg/mL (≈ 8.82 µM) | MIC (Acinetobacter baumannii; Acinetobacter baumannii, UKA13, oxa23): 4 µg/mL (≈ 8.82 µM) | MIC (Acinetobacter baumannii; Acinetobacter baumannii, UKA15, oxa23): 4 µg/mL (≈ 8.82 µM) | MIC (Acinetobacter baumannii; Acinetobacter baumannii, UKA19): 0.5 µg/mL (≈ 1.1 µM) | MIC (Acinetobacter baumannii; Acinetobacter baumannii, W1): 8 µg/mL (≈ 17.6 µM) | IC50 [3]: 8.38 µM | IC50 (WT DNA gyrase): 5.56 µM

— PMC13266999, “Designing Antibiotics with Inherent Resistance to Efflux as a Strategy to Revive Discovery against Multidrug-Resistant Pathogens” (Journal of Medicinal Chemistry, 2026)
